Tests used:
[1] = xn = mol fraction of the nth substance listed; details: 101 kPa, Liquid; for speed of sound: Sing-around technique in a fixed-path interferometer; for mass density: Vibrating tube method
[2] = refractive index (Na D-line) (dimensionless); xn = mol fraction of the nth substance listed; details: 101 kPa, Liquid, Standard Abbe refractometry

CCCC[N+]1(C)CCCC1.N#CN=C=[N-] [1-butyl-1-methylpyrrolidinium dicyanamide] + O
Details	mass density, 288.15 K [kg/m3]	mass density, 298.15 K [kg/m3]	mass density, 308.15 K [kg/m3]	refractive index, 288.15 K	refractive index, 298.15 K	refractive index, 308.15 K	speed of sound, 288.15 K [m/s]	speed of sound, 298.15 K [m/s]	speed of sound, 308.15 K [m/s]
[1], x2 = 0	1019.17	1013.53	1007.93	–	–	–	1836.9	1811.1	1781.9
[1], x2 = 0.096	1018.92	1013.25	1007.63	–	–	–	1836.1	1810.6	1782.4
[1], x2 = 0.1277	1018.84	1013.16	1007.52	–	–	–	1835.8	1810.4	1783.1
[1], x2 = 0.2116	1018.6	1012.89	1007.23	–	–	–	1835.3	1810.1	1783.8
[1], x2 = 0.3077	1018.31	1012.56	1006.85	–	–	–	1835.6	1810	1784.2
[1], x2 = 0.3942	1018.08	1012.27	1006.5	–	–	–	1834.9	1810	1785.7
[1], x2 = 0.4952	1017.78	1011.89	1006.03	–	–	–	1835.1	1810.8	1786.7
[1], x2 = 0.5023	1017.76	1011.86	1005.99	–	–	–	1835.2	1810.9	1786.7
[1], x2 = 0.6047	1017.45	1011.42	1005.42	–	–	–	1835.9	1811.8	1788
[1], x2 = 0.6137	1017.41	1011.37	1005.35	–	–	–	1835.7	1811.8	1788
[1], x2 = 0.7061	1016.91	1010.72	1004.54	–	–	–	1832.9	1809.6	1786.1
[1], x2 = 0.7177	1016.81	1010.61	1004.4	–	–	–	1832	1808.9	1785.6
[1], x2 = 0.7571	1016.39	1010.13	1003.86	–	–	–	1827.3	1804.9	1782.1
[1], x2 = 0.8208	1015.22	1008.91	1002.57	–	–	–	1810.9	1790.5	1769.4
[1], x2 = 0.8468	1014.46	1008.19	1001.84	–	–	–	1798.5	1779.7	1756.5
[1], x2 = 0.9034	1011.96	1005.98	999.84	–	–	–	1750.6	1738.3	1724.2
[1], x2 = 0.904	1011.92	1005.93	999.81	–	–	–	1749.8	1737.2	1723.6
[1], x2 = 0.9492	1008.27	1003.12	997.62	–	–	–	1671.5	1670.7	1666.7
[1], x2 = 0.9507	1008.1	1002.99	997.53	–	–	–	1667.9	1667.7	1664.3
[1], x2 = 0.9517	1007.98	1002.91	997.47	–	–	–	1665.4	1665.5	1662.5
[2], x2 = 0	–	–	–	1.49968	1.49681	1.49392	–	–	–
[2], x2 = 0.096	–	–	–	1.49811	1.49519	1.49222	–	–	–
[2], x2 = 0.1277	–	–	–	1.49752	1.49459	1.49162	–	–	–
[2], x2 = 0.2116	–	–	–	1.4957	1.49278	1.48982	–	–	–
[2], x2 = 0.3077	–	–	–	1.49322	1.49032	1.4871	–	–	–
[2], x2 = 0.3942	–	–	–	1.49044	1.48751	1.48432	–	–	–
[2], x2 = 0.4952	–	–	–	1.48621	1.48329	1.47987	–	–	–
[2], x2 = 0.5023	–	–	–	1.4858	1.48284	1.47973	–	–	–
[2], x2 = 0.6047	–	–	–	1.4797	1.47674	1.47345	–	–	–
[2], x2 = 0.6137	–	–	–	1.47901	1.4761	1.47289	–	–	–
[2], x2 = 0.7061	–	–	–	1.47041	1.46748	1.46424	–	–	–
[2], x2 = 0.7177	–	–	–	1.46905	1.46612	1.46281	–	–	–
[2], x2 = 0.7571	–	–	–	1.46368	1.46078	1.45746	–	–	–
[2], x2 = 0.8208	–	–	–	1.45158	1.4487	1.44577	–	–	–
[2], x2 = 0.8468	–	–	–	1.44481	1.44172	1.43884	–	–	–
[2], x2 = 0.9034	–	–	–	1.42419	1.42145	1.41909	–	–	–
[2], x2 = 0.904	–	–	–	1.42386	1.42118	1.41891	–	–	–
[2], x2 = 0.9492	–	–	–	1.39597	1.39362	1.39175	–	–	–
[2], x2 = 0.9507	–	–	–	1.39472	1.39249	1.39055	–	–	–
[2], x2 = 0.9517	–	–	–	1.3939	1.39161	1.3897	–	–	–
